Laboratory results taken from patent US9113629B2, “4-amino-6-(4-substituted-phenyl)-picolinates and 6-amino-2-(4-substituted-phenyl)-pyrimidine-4-carboxylates and their use as herbicides” (DOW AGROSCIENCES LLC, priority 2013, dated 2015).
Like-named read-outs stand apart in the source and are kept apart here.

Columns and labels:
[1] = test system: VERPE: bird's-eye speedwell (veronica persica); assay: Post-emergent Test III, herbicidal activity in wheat and barley; assay type: in vivo; settings: for pest or weed control at 35 g/ha: 35 g ai/ha; for pest or weed control at 70 g/ha: 70 g ai/ha; for GR50 VERPE / GR80 VERPE: probit analysis
How it was run: (§1)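 Plants at the second to third true-leaf stage, grown in a greenhouse at about 18/17 °C with a 14 h photoperiod, were sprayed post-emergence at 187 L/ha with the high rate and ½× to 1/16× serial dilutions in an acetone/DMSO/crop-oil/surfactant carrier. Injury was rated visually at 21 d on a 0–100% scale, and GR20–GR90 were derived by probit analysis.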

[2] = test system: ALOMY: black-grass (Alopecurus myosuroides); assay: as above; assay type: in vivo; settings: for pest or weed control at 35 g/ha: 35 g ai/ha; for pest or weed control at 70 g/ha: 70 g ai/ha; for GR50 ALOMY / GR80 ALOMY: probit analysis, 21 days after application; for GR50 ALOMY: dose for growth reduction of 50 percent; for GR80 ALOMY: dose for growth reduction of 80 percent
How it was run: as §1

SETVI = assay: Pre-emergent Test III, preemergent activity in wheat and barley; assay type: in vivo, Setaria viridis
Description: Pre-emergent Test III. Seeds of test species were planted into square plastic pots (10 cm wide) containing sandy loam soil. After planting, all pots were sub-irrigated 16 h prior to compound application. A weighed amount, determined by the highest rate to be tested, of each test compound was placed in a 25 mL glass vial and was dissolved in 4 mL of a 97:3 v/v mixture of acetone and DMSO to obtain concentrated stock solutions. […] The concentrated stock solutions obtained were diluted with 20 mL of an aqueous mixture containing water and 0.02% w/v (weight/volume) of Triton X-155 to obtain spray solutions containing the highest application rates. Additional application rates were obtained by serial dilution of 12 mL of the high rate solution into a solution containing 2 mL of 97:3 v/v mixture of acetone and DMSO and 10 mL of an aqueous mixture containing water and 0.02% w/v (weight/volume) of Triton X-155 to obtain 1⁄2×, 1⁄4×, 1⁄8× and 1/16× rates of the high rate. Compound requirements are based upon a 12 mL application volume at a rate of 187 liters per hectare (L/ha). Formulated compounds were applied to the soil surface with an overhead Mandel track sprayer equipped with […] nozzles calibrated to deliver 187 L/ha over an application area of 0.503 square meters. Control pots were sprayed in the same manner with the solvent blank. The treated pots and control pots were placed in a greenhouse as described above and watered through surface irrigation. After 21 d, the condition of the test pots as compared with that of the untreated pots was determined visually and scored on a scale of 0 to 100 percent where 0 corresponds to no herbicidal effect and 100 corresponds to plant death or lack of emergence from the soil. By applying the well-accepted probit analysis as described by J. Berkson in Journal of the American Statistical Society, 48, 565 (1953) and by D. Finney in “Probit Analysis” Cambridge University Press (1952), the above data can be used to calculate GR20, GR50, GR80 and GR90 values, which are defined as growth reduction factors that correspond to the effective dose of herbicide required to kill or control 20 percent, 50 percent, 80 percent or 90 percent, respectively, of a target plant.

[3] = Veronica persica, post-emergence, 504 h, read-out: Visual Growth Reduction (%) 21 Days After Application VERPE
[4] = Alopecurus myosuroides, post-emergence, 504 h, read-out: Visual Growth Reduction (%) 21 Days After Application ALOMY
[5] = Veronica persica, post-emergence, 504 h, 21 days after application, read-out: Visual Gorowth Reduction (%) 21 days After Application VERPE

With `COC(=O)c1nc(-c2ccc(Cl)c(F)c2)c(F)c(N)c1Cl` [Compound 216] the pest or weed control at 35 g/ha [1, 3] was 45 to 59%, the pest or weed control at 70 g/ha [1, 3] was 60 to 74% and the pest or weed control at 140 g/ha ([1]; Veronica persica, post-emergence, 504 h, 140 g ai/ha, read-out: Visual Growth Reduction (%) 21 Days After Application VERPE) was 75 to 84%. The “GR50 VERPE” value ([1]; dose for growth reduction of 50 percent, 21 days after application) was 32 g ai/ha, the “GR80 VERPE” value ([1]; dose for growth reduction of 80 percent, 21 days after application) was greater than 140 g ai/ha and the pest or weed control at 35 g/ha [2, 4] was 45 to 59%. For the same molecule, the pest or weed control at 70 g/ha [2, 4] was 60 to 74%, the pest or weed control at 140 g/ha ([2]; Alopecurus myosuroides, post-emergence, 504 h, 140 g ai/ha, read-out: Visual Growth Reduction (%) 21 Days After Application ALOMY) was 75 to 84% and the “GR50 ALOMY” value [2] was 54 g ai/ha. For the same molecule, the “GR80 ALOMY” value [2] was greater than 140 g ai/ha.
In the case of `COC(=O)c1nc(-c2ccc(Br)c(F)c2)c(F)c(N)c1Cl` [Compound 49], the “Visual Growth Reduction (%) 21 Days After Application, SETVI” value (SETVI; 35 g ai/ha) is reported as “F (30-44)”, the “Visual Growth Reduction (%) 21 Days After Application, SETVI” value (SETVI; 70 g ai/ha) is reported as “F (30-44)” and the “GR50 SETVI” value (SETVI; 21 days after application, dose to kill or control 50%, probit analysis) is reported as greater than 70 g ai/ha. For the same molecule, the “GR80 SETVI” value (SETVI; 21 days after application, dose to kill or control 80%, probit analysis) was greater than 70 g ai/ha, the pest or weed control at 35 g/ha [1, 5] was 45 to 59% and the pest or weed control at 70 g/ha [1, 5] was 60 to 74%. The “GR50 VERPE” value ([1]; dose for 50 percent growth reduction, 21 days after application) was 37 g ai/ha and the “GR80 VERPE” value ([1]; dose for 80 percent growth reduction, 21 days after application) was greater than 140 g ai/ha.
In the case of `Nc1c(F)c(-c2ccc(C(F)(F)F)c(F)c2F)nc(C(=O)O)c1Cl` [Compound 167], the pest or weed control at 35 g/ha [2, 4] is reported as 30 to 44%, the pest or weed control at 70 g/ha [2, 4] is reported as 60 to 74% and the “GR50 ALOMY” value [2] is reported as 57 g ai/ha. For the same molecule, the “GR80 ALOMY” value [2] was 119 g ai/ha.
